System: ARPE-19 cells
Experiment: Intracellular uptake of FITC labeled TAT and PHHP 1 peptides in ARPE-19 cells (fluorometry)
Assay type: cell-based, human
Conditions: 10 and 5 μM
Method: FIG. 9 are graphs of quantitation of in vitro cell uptake study of FITC labeled PHIP (P 1) and TAT peptides in ARPE-19 cells. Cells were grown to a 10,000 well density in 96 well fluorescent imaging plates with a transparent bottom. The ARPE-19 cells required an additional 48 hrs, to reach this cell density. Cells were incubated with 200 μl of 10 and 5 μM/ml FITC labeled PHHP (P 1) and TAT peptides and uptake was continued for 1 hour at 37° C. Following uptake; cells were washed three times with acidic PBS (pH 5.0) and normal PBS (pH 7.4) at 37° C. Cells were lysed using 0.1 M NaOH and quantified using a fluorometry method. Panel A illustrates uptake of peptides by ARPE-19 cells and absolute amount, and panel B illustrates the percentage uptake of peptides at different concentrations.
The cell uptake study of FITC labeled PHHP peptides in an ARPE-19 cell line was studied using fluorometry. ARPE —19 cells were grown in a DMEM/F12 medium. A cell density of 10,000 cells was plated into a 96 well plate for each cell lines, 48 hours before the start of the uptake study. […] All the samples were brought to room temperature and fluorescence spectra were recorded at an excitation wavelength of 493 nm and emission wavelength of 520 nm. The percentage uptake and absolute uptake were determined for each peptide at different concentrations and plotted as a bar graph for comparative analyses in FIG. 3.
Intracellular uptake of TAT and PHHP 1 peptides in ARPE-19 cells. […] All the samples were then brought to room temperature and fluorescence intensities were recorded at an excitation wavelength of 493 nm and emission wavelength of 520 nm.
Percentage uptake and statistical analyses at different concentrations were compared. […] The percentage uptake of the PHHP 1 peptide was determined to be ˜15-17, whereas ˜3-4% for TAT peptide. […] Furthermore, these proteins in their PHHP 1 tagged and un-tagged forms were evaluated for intracellular uptake properties in ARPE-19, A549, and hCET cells lines and for transcellular migration behavior across bovine and rabbit eyes cornea following topical dosing (FIG. 9).

PHHP 1: positive, helical, hydrophobic peptide variant, sequence WWFWIWFWWGPGRRKRRKRRR [SEQ ID 1] (Sequence is synthesized)
fold improvement in the uptake relative to the TAT peptide (1 hour uptake at 37° C.): 4-7 fold | uptake behavior (percentage uptake versus concentration) (FITC labeled peptide, 1 hour): concentration dependence | percentage uptake (FITC labeled peptide, 1 hour uptake at 37° C.): 15-17%
